Measurements reported in patent EP0610032A1, “Acetanilide derivatives” (ZENECA LIMITED, priority 1993, dated 1994).

How the values were obtained:
5-LO [1] = target: T1, 5-LO (Homo sapiens, UniProt P09917); test: Test a): in vitro heparinised human blood challenged with calcium ionophore A23187, radioimmunoassay of LTB₄; type: cell-based; conditions: A23187 challenge, read-out: IC₅₀ (LTB₄)
T1 construct: incubating a test compound with heparinised human blood, prior to challenge with the calcium ionophore A23187; endogenous in cells; host or cells: heparinised human whole blood (blood cells)
T1 sequence (P09917 1-674): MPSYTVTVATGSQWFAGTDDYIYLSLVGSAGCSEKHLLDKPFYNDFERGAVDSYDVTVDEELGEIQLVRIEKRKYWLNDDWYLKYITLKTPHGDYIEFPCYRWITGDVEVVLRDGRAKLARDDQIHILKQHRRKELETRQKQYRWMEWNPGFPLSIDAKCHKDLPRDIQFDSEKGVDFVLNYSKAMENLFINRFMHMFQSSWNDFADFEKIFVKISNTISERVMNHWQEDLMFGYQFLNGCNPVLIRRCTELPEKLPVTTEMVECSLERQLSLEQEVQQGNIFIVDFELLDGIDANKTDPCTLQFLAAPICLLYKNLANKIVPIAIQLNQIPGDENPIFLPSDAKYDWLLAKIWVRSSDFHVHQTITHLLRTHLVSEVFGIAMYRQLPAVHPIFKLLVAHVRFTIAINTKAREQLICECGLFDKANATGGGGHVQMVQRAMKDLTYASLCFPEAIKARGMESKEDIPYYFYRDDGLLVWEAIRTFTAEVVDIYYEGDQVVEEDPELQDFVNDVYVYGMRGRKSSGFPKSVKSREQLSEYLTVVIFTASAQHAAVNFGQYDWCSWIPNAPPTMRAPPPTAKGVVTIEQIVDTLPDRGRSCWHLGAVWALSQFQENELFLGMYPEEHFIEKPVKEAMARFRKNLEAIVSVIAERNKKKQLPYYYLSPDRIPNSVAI
Source text: As stated previously, the compounds of the formula I are inhibitors of the enzyme 5-LO. […] J. Pharmacol., 1985, 84, 34P) which involves the use of a protein-LTB₄ conjugate produced using the procedure of Young et alia (Prostaglandins, 1983, 26(4), 605-613). The effects of a test compound on the enzyme cyclooxygenase (which is involved in the alternative metabolic pathway for arachidonic acid and gives rise to prostaglandins, thromboxanes and related metabolites) may be measured at the same time using the specific radioimmunoassay for thromboxane B₂(TxB₂) described by Carey and Forder (see above). This test provides an indication of the effects of a test compound against 5-LO and also cyclooxygenase in the presence of blood cells and proteins. It permits the selectivity of the inhibitory effect on 5-LO or cyclooxygenase to be assessed. • b) An ex vivo assay system, which is a variation of test a) above, involving administration to a group of rats of a test compound (usually orally as the suspension produced when a solution of the test compound in dimethylsulphoxide is added to carboxymethylcellulose), blood collection, heparinisation, challenge with A23187 and radioimmunoassay of LTB₄ and TxB₂. […]

5-LO [2] = target: T2, 5-LO (Rattus norvegicus, UniProt P12527); test: Test c): in vivo zymosan-induced LTB₄ liberation in subcutaneous air pouch of male rats; conditions: oral, 3 hours, read-out: oral ED₅₀(LTB₄)
T2 construct: liberation of LTB₄ induced by zymosan within an air pouch generated within the subcutaneous tissue of the back of male rats; from tissue; host or cells: subcutaneous air pouch of male rats (in vivo)
T2 sequence (P12527 1-673): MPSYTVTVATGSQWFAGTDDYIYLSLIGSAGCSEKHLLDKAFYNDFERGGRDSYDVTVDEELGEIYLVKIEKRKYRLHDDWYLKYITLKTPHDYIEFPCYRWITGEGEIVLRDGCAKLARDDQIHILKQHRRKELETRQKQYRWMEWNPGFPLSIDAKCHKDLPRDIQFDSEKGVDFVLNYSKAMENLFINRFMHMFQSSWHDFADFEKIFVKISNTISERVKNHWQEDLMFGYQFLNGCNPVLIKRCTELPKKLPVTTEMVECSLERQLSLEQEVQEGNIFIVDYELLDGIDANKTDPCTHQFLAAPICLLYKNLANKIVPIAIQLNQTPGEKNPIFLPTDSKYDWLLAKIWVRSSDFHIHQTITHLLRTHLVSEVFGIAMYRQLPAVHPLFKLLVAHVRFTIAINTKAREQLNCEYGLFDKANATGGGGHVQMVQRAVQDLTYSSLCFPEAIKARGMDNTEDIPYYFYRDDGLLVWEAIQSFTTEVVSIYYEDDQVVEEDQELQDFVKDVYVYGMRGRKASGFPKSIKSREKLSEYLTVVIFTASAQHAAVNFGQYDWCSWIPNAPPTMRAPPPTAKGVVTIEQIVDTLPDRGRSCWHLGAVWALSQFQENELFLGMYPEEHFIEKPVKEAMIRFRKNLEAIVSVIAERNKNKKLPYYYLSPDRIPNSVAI
Description: This test provides an indication of the bioavailability of a test compound as an inhibitor of 5-LO or cyclooxygenase. • c) An in vivo system involving measuring the effects of a test compound administered orally against the liberation of LTB₄ induced by zymosan within an air pouch generated within the subcutaneous tissue of the back of male rats. The rats are anaesthetised and air pouches are formed by the injection of sterile air (20ml). A further injection of air (10ml) is similarly given after 3 days. At 6 days after the initial air injection the test compound is administered (usually orally as the suspension produced when a solution of the test compound in dimethylsulphoxide is added to hydroxypropylmethylcellulose), followed by the intrapouch injection of zymosan (1ml of a 1% suspension in physiological saline). After 3 hours the rats are killed, the air pouches are lavaged with physiological saline, and the specific radioimmunoassay described above is used to assay LTB₄ in the washings. This test provides an indication of inhibitory effects against 5-LO in an inflammatory milieu.

| Structure (SMILES) | IC50 (5-LO [1]) | ED50 (5-LO [2]) |
| --- | --- | --- |
| CC(=O)N(C)c1ccc(Sc2cc([C@@]3(C)COC(C)(C)O3)cs2)cc1 [Example 1, N-methyl-4'-{4-[(4S)-2,2,4-trimethyl-1,3-dioxolan-4-yl]thien-2-ylthio}acetanilide] | < 40 nM | ~1.5 mg/kg |
| CC(=O)N(C)c1ccc(Sc2ncc([C@@]3(C)COC(C)(C)O3)s2)cc1 [Example 2, N-methyl-4'-{5-[(4R)-2,2,4-trimethyl-1,3-dioxolan-4-yl]thiazol-2-ylthio}acetanilide] | 70 nM | – |
